Where “and” joins values, the source holds several entries; their conditions need not be identical. Identical values can stand only once. Like-named read-outs stand apart in the source and are kept apart here.
What was measured:
AChE from electric eel = target: T1, AChE from electric eel (Electrophorus electricus, UniProt O42275); test: biochemical; details: for IC50: AChE from electric eel, mean ± SD of triplicate independent experiments
T1 construct: purchased Sigma-Aldrich
Experimental: (§1) Activity of enzymes and inhibition kinetics were determined using a Bio-Rad iMark microplate reader based on a modification of the Ellman method.[14] ^, [15] Compounds were dissolved in DMSO. The assay solution which contained 60 µL 5,5′-Dithiobis(2-nitrobenzoic acid) (DTNB) at 1.1 mM, 30 µL AChE/BuChE at 0.20 U/mL (initial concentration) and 150 µL tested compound solution with different concentrations. Absorbance was then recorded at λ = 415 nm. […]
(§2) serially diluted. Negative (without treatment) and vehicle (DMSO, final concentration 0.2% v/v for AChE and 0.8% v/v for BuChE) controls were kept for reference.
(§3) Following, there were added 60 μL of 5,5′-Dithiobis(2-nitrobenzoic acid) (DTNB, Ellman's reagent) at 1.1 mM and 30 μL of electric eel acetylcholinesterase (EeAChE) or equine serum butyrylcholinesterase (EqBuChE) at 0.20 U/mL in the presence of 1 mg/mL bovine serum albumin (BSA). Absorbance was then recorded using an iMark plate reader (Bio-Rad) equipped with a λ = 415 nm light filter and this measure used as […]
(§4) acetylthiocholine iodide (ACTI) or S-butyrylthiocholine iodide (BCTI) were added and the absorbance recorded after a 10-minute incubation at 30 °C at λ = 415 nm for 3 times within 30 seconds. Enzyme activity was calculated as percentage of untreated control discounting the blank reference. The final inhibitor concentration ranged from 100 – 0.00001 μM for AChE (dillution factor = 10) and from 400 – 0.1 μM for BuChE (dillution factor = 4). IC50 values were calculated on Graphpad Prism 7.0 using the non-linear regression model for dose-response inhibition. […]

BuChE from horse serum = target: T2, BuChE from horse serum (Equus caballus, UniProt P81908); test: biochemical; details: mean ± SD of triplicate independent experiments
T2 construct: equine serum butyrylcholinesterase (EqBuChE); from tissue; host or cells: equine (horse) serum
Experimental: as §1, §2, §3, §4

[1] = system: N2a cells (neuroblastoma); test: N2a neuroblastoma cell viability, MTT assay; assay type: cell-based, murine; details: for Neuroblastoma cell viability, MTT reduction relative to control cells, Mean ± SD: 48 h; for cytotoxicity against N2a cells (in words): 48 h incubation, maximum tested concentration 50 µM
Experimental: N2a cells were cultured in Dulbecco’s modified Eagle’s medium supplemented with 10% fetal bovine serum and 0.1% gentamicin in a 5% CO2 atmosphere. N2a cells were transferred to a 96-well plate (∼10,000 cells/cm^2) and incubated for 24 h, before treatment with the compounds at 10 or 50 µM. Cell viability was evaluated by MTT (3-[4,5-dimethylthiazol-2-yl]-2,5-diphenyl tetrazolium bromide) assay.
Murine neuroblastoma cell (N2a) culture and cell viability assay.
N2a cells were cultured in Dulbecco’s modified Eagle’s medium supplemented with 10% fetal bovine serum and 0.1% gentamicin in a 5% CO2 atmosphere. N2a cells were transferred to a 96-well plate (~10,000 cells/cm2) and incubated for 24 h, before treatment with the compounds at 10 or 50 µM. After being treated, cells were grown for 48 hours. Cell viability was evaluated by MTT (3-[4,5-dimethylthiazol-2-yl]-2,5-diphenyl tetrazolium bromide) assay. MTT was added to a final concentration of 0.5 mg/mL into the wells (samples and controls), and the plates were incubated for 4 h at 37 °C. After, all the media was removed and produced formazan crystals were solubilized with DMSO and quantified by reading the OD at 570 nm in a 96-well plate reader (SpectraMax® Paradigm®, Molecular Devices). Means and standard deviations were calculated from triplicates.

[2] = target: T3, electric eel acetylcholinesterase (EeAChE) (Electrophorus electricus, UniProt O42275); test: biochemical; assay type: biochemical; details: for inhibition type in AChE: Lineweaver–Burk; for Ki’ (non-competitive inhibition constant) on AChE / Ki: ± SD of triplicate; for Ki: read-out: Ki (competitive inhibition constant) on AChE
T3 construct: purchased Sigma-Aldrich
Experimental: as §1
(§5) The enzymatic kinetic of cholinesterase inhibition was determined according to adapted Ellman's method1. All of the solution were prepared in 0.02 M tris-HCl buffer (pH = 7.5), stock solutions of test compounds prepared in DMSO (50 mM), and the experiment conducted in triplicate. To a flat-bottom 96-well transparent plate were added 150μL of treatment solutions with inhibitors 4d and 6a at two different concentrations (Table 2) distributed in eight sets of triplicates each. Eight sets of untreated triplicates were used as negative control. Following, there were added 60 μL of 5,5′-Dithiobis(2-nitrobenzoic acid) (DTNB, Ellman's reagent) at 1.1 mM and 30 μL of electric eel acetylcholinesterase (EeAChE) or equine serum butyrylcholinesterase (EqBuChE) at 0.20 U/mL in presence of 1 mg/mL bovine serum albumin (BSA).
(§6) Absorbance was then recorded using an iMark plate reader (Bio-Rad) equipped with a λ = 415 nm light filter and this measure used as a blank reference. After 10-minute incubation at room temperature, 24 μL of acetylthiocholine iodide (ACTI) or S- […]
(§7) the absorbance recorded after incubation for 0, 5, 10, 15 and 20 minutes at room temperature at λ = 415 nm. The Lineweaver–Burk reciprocal plots were obtained by […]
(§8) plotting a 1/velocity versus 1/[substrate] graph for two different inhibitor concentrations […]
(§9) behavior, in ways the region to where the curves converge determine the type of inhibition observed. Ki, Ki' (competitive and noncompetitive inhibition constants respectively), Km (Michaelis-Menten constant) and Vmax values were calculated with Graphpad Prism 7.0 using the non-linear regression models for enzyme kinetics - inhibiton and enzyme kinects - substrate vs. velocity.

[3] = target: T4, equine serum butyrylcholinesterase (EqBuChE) (Equus caballus, UniProt P81908); test: biochemical; assay type: biochemical; details: for inhibition type in BuChE: Lineweaver–Burk; for Ki’ (non-competitive inhibition constant) on BuChE / Ki: ± SD of triplicate; for Ki: read-out: Ki (competitive inhibition constant) on BuChE
T4 construct: equine serum butyrylcholinesterase (EqBuChE); from tissue; host or cells: equine (horse) serum
Experimental: as §1, §5, §6, §7, §8, §9

[4] = Ferric reducing ability of plasma (FRAP) antioxidant assay; details: 50 µM final concentration, 10 min at 37 °C
Experimental: A 0.5 ml solution of coumarin compounds in methanol (50 µM final concentration) was mixed with 4.5 ml of the FRAP reagent. After 10 min of incubation at 37 °C, absorbance at 593 nm was measured using methanol as blank.[20] ^, [21] The calibration curve was prepared with quercetin and the results expressed as: antioxidant index based on quercetine (Q) (mmol Q/mol). The analyses were performed in triplicate.
FRAP solution was freshly prepared by mixing 25 mL acetate buffer (0.30 M) at pH
3.6, 2.5 mL ferric chloride (20 mM) and 2.5 mL 2,4,6-tris(2-pyridyl)-s-triazine (10
mM). In a test tube containing 4.5 mL of FRAP reagent were added 0.5 mL of 500 µM
solutions of 4a-d, 5a-c and 6a-c (in methanol). After a 10-minute incubation at 37°C the
absorbance was recorded in a spectrophotometer at λ = 593 nm using methanol as blank
reference11. A standard curve was obtained by plotting the absorbance read after
of quercetin (Q) equivalent to mol of inhibitor (mmol Q/mol), obtained in triplicates.

T1 sequence (O42275 24-633): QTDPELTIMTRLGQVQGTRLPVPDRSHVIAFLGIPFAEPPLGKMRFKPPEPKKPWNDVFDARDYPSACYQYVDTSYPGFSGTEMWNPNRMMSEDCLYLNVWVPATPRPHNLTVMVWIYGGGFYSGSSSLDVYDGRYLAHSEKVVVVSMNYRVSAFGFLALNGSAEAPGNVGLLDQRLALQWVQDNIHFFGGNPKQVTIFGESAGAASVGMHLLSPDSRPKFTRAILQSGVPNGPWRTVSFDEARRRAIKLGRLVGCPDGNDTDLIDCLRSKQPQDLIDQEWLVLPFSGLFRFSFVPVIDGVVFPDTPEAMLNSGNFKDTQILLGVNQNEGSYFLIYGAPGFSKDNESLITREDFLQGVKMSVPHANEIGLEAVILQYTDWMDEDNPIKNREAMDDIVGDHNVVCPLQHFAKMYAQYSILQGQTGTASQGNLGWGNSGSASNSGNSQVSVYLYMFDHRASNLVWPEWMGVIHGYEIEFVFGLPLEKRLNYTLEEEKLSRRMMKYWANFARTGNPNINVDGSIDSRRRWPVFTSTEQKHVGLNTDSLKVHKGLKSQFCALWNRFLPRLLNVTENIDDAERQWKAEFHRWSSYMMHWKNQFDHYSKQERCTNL
T3 sequence (O42275 24-633): as above
T4 sequence (P81908 whole entry): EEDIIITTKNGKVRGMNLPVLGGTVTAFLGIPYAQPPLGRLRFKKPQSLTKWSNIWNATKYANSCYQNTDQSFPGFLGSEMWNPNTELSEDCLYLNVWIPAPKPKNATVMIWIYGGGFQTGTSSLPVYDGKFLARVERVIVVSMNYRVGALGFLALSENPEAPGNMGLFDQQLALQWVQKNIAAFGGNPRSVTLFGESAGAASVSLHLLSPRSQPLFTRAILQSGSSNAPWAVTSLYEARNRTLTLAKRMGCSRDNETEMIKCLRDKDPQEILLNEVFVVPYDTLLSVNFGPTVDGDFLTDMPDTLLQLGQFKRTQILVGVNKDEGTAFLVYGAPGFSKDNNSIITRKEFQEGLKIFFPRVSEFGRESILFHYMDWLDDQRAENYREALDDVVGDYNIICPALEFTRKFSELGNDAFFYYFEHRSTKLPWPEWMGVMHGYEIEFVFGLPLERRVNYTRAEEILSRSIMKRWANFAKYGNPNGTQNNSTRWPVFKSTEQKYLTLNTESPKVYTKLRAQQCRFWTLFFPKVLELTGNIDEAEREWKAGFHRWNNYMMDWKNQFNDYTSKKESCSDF
T2 sequence (P81908 whole entry): as above

## O=c1oc2cc(OCCN3CCCCC3)ccc2cc1Br [Compound 4a]
AChE from electric eel; read-out: IC50(μM)±SD AChE
  IC50: 0.18 ± 0.009 µM
AChE from electric eel
  SI (selectivity index, BuChE IC50/AChE IC50): 47
BuChE from horse serum
  IC50: 8.37 ± 0.167 µM
[1]; 10 µM
  Neuroblastoma cell viability, MTT reduction relative to control cells, Mean ± SD: 89.16 ± 11.28%
[1]; 50 µM
  Neuroblastoma cell viability, MTT reduction relative to control cells, Mean ± SD: 103.2 ± 13.68%
[1]
  cytotoxicity against N2a cells (in words): not cytotoxic

## O=c1oc2cc(OCCCN3CCCCC3)ccc2cc1Br [Compound 4b]
AChE from electric eel; read-out: IC50(μM)±SD AChE
  IC50: 0.37 ± 0.008 µM
AChE from electric eel
  SI (selectivity index, BuChE IC50/AChE IC50): 42
BuChE from horse serum
  IC50: 15.87 ± 0.007 µM
[1]; 10 µM
  Neuroblastoma cell viability, MTT reduction relative to control cells, Mean ± SD: 93.34 ± 8.19%
[1]; 50 µM
  Neuroblastoma cell viability, MTT reduction relative to control cells, Mean ± SD: 87.60 ± 4.39%

## O=c1oc2cc(OCCCCN3CCCCC3)ccc2cc1Br [Compound 4c]
AChE from electric eel; read-out: IC50(μM)±SD AChE
  IC50: 0.55 ± 0.01 µM
AChE from electric eel
  SI (selectivity index, BuChE IC50/AChE IC50): 9
BuChE from horse serum
  IC50: 4.92 ± 0.095 µM
[1]; 10 µM
  Neuroblastoma cell viability, MTT reduction relative to control cells, Mean ± SD: 94.43 ± 4.28%
[1]; 50 µM
  Neuroblastoma cell viability, MTT reduction relative to control cells, Mean ± SD: 88.88 ± 19.01%

## O=c1oc2cc(OCCCCCN3CCCCC3)ccc2cc1Br [Compound 4d]
AChE from electric eel; read-out: IC50(μM)±SD AChE
  IC50: 0.14 µM and 0.15 µM
AChE from electric eel
  SI (selectivity index, BuChE IC50/AChE IC50): 33
BuChE from horse serum
  IC50: 5.01 ± 0.253 µM
[2]
  inhibition type in AChE: mixed-type inhibition
  Ki’ (non-competitive inhibition constant) on AChE: 157.350 ± 4.674 nM
  Ki: 21.3 ± 0.816 nM
[2]; inhibitor 0.1 μM
  Vmax on AChE: 2.209 ± 0.060 µM/min
[2]; inhibitor 0.2 μM
  Vmax on AChE: 1.752 ± 0.198 µM/min
[3]
  inhibition type in BuChE: mixed-type inhibition
  Ki’ (non-competitive inhibition constant) on BuChE: 6621 ± 322 nM
  Ki: 2130 ± 148 nM
[3]; inhibitor 0.1 μM (so in the source)
  Vmax on BuChE: 5.791 ± 0.185 µM/min
[3]; inhibitor 0.2 μM (so in the source)
  Vmax on BuChE: 4.669 ± 0.229 µM/min
[1]; 10 µM
  Neuroblastoma cell viability, MTT reduction relative to control cells, Mean ± SD: 80.10 ± 7.27%
[1]; 50 µM
  Neuroblastoma cell viability, MTT reduction relative to control cells, Mean ± SD: 62.11 ± 10.09%

## O=c1oc2cc(OCCN3CCCCC3)ccc2cc1-c1ccccc1 [Compound 5a]
AChE from electric eel; read-out: IC50(μM)±SD AChE
  IC50: 0.14 ± 0.009 µM
AChE from electric eel
  SI (selectivity index, BuChE IC50/AChE IC50): 18
BuChE from horse serum
  IC50: 2.5 ± 0.177 µM
[1]; 10 µM
  Neuroblastoma cell viability, MTT reduction relative to control cells, Mean ± SD: 98.37 ± 8.92%
[1]; 50 µM
  Neuroblastoma cell viability, MTT reduction relative to control cells, Mean ± SD: 105.5 ± 14.93%
[1]
  cytotoxicity against N2a cells (in words): not cytotoxic

## O=c1oc2cc(OCCCN3CCCCC3)ccc2cc1-c1ccccc1 [Compound 5b]
AChE from electric eel; read-out: IC50(μM)±SD AChE
  IC50: 0.24 ± 0.014 µM
AChE from electric eel
  SI (selectivity index, BuChE IC50/AChE IC50): 8
BuChE from horse serum
  IC50: 1.86 ± 0.024 µM
[1]; 10 µM
  Neuroblastoma cell viability, MTT reduction relative to control cells, Mean ± SD: 83.55 ± 6.58%
[1]; 50 µM
  Neuroblastoma cell viability, MTT reduction relative to control cells, Mean ± SD: 57.06 ± 8.72%
[1]
  cytotoxicity against N2a cells (in words): increase in toxicity

## O=c1oc2cc(OCCCCCN3CCCCC3)ccc2cc1-c1ccccc1 [Compound 5c]
AChE from electric eel; read-out: IC50(μM)±SD AChE
  IC50: 0.45 ± 0.036 µM
AChE from electric eel
  SI (selectivity index, BuChE IC50/AChE IC50): 2
BuChE from horse serum
  IC50: 0.9 ± 0.001 µM
[1]; 10 µM
  Neuroblastoma cell viability, MTT reduction relative to control cells, Mean ± SD: 117.4 ± 4.86%
[1]; 50 µM
  Neuroblastoma cell viability, MTT reduction relative to control cells, Mean ± SD: 13.47 ± 1.19%
[1]
  cytotoxicity against N2a cells (in words): increase in toxicity

## CN(C)c1ccc(-c2cc3ccc(OCCN4CCCCC4)cc3oc2=O)cc1 [Compound 6a]
AChE from electric eel
  SI (selectivity index, BuChE IC50/AChE IC50): 354
AChE from electric eel; IC50(μM)±SD AChE
  IC50: 0.02 ± 0.001 µM
BuChE from horse serum
  IC50: 6.73 ± 0.04 µM
[4]
  FRAP value, antioxidant index based on quercetine (Q): 7.49 ± 0.61 mmol Q/mol
[2]
  Ki’ (noncompetitive) against AChE: 10 nM
  inhibition type in AChE: mixed-type inhibition
  Ki’ (non-competitive inhibition constant) on AChE: 10.499 ± 0.438 nM
  Ki: 1.61 ± 0.066 nM
[2]; inhibitor 0.01 μM
  Vmax on AChE: 1.762 ± 0.128 µM/min
[2]; inhibitor 0.03 μM
  Vmax on AChE: 1.254 ± 0.043 µM/min
[3]
  inhibition type in BuChE: mixed-type inhibition
  Ki’ (non-competitive inhibition constant) on BuChE: 7376 ± 558 nM
  Ki: 2580 ± 236 nM
[3]; inhibitor 0.01 μM (so in the source)
  Vmax on BuChE: 4.837 ± 0.399 µM/min
[3]; inhibitor 0.03 μM (so in the source)
  Vmax on BuChE: 3.224 ± 0.284 µM/min
[1]; 10 µM
  Neuroblastoma cell viability, MTT reduction relative to control cells, Mean ± SD: 92.15 ± 43.03%
[1]; 50 µM
  Neuroblastoma cell viability, MTT reduction relative to control cells, Mean ± SD: 115.9 ± 4.28%
[1]
  cytotoxicity against N2a cells (in words): not cytotoxic

## CN(C)c1ccc(-c2cc3ccc(OCCCN4CCCCC4)cc3oc2=O)cc1 [Compound 6b]
AChE from electric eel; read-out: IC50(μM)±SD AChE
  IC50: 0.33 ± 0.011 µM
AChE from electric eel
  SI (selectivity index, BuChE IC50/AChE IC50): 22
BuChE from horse serum
  IC50: 7.27 ± 0.273 µM
[4]
  FRAP value, antioxidant index based on quercetine (Q): 2.42 ± 0.19 mmol Q/mol
[1]; 10 µM
  Neuroblastoma cell viability, MTT reduction relative to control cells, Mean ± SD: 84.11 ± 11.1%
[1]; 50 µM
  Neuroblastoma cell viability, MTT reduction relative to control cells, Mean ± SD: 16.79 ± 8.41%
[1]
  cytotoxicity against N2a cells (in words): increase in toxicity

## CN(C)c1ccc(-c2cc3ccc(OCCCCCN4CCCCC4)cc3oc2=O)cc1 [Compound 6c]
AChE from electric eel; read-out: IC50(μM)±SD AChE
  IC50: 0.92 µM and 0.96 µM
AChE from electric eel
  SI (selectivity index, BuChE IC50/AChE IC50): 4
BuChE from horse serum
  IC50: 3.85 ± 0.19 µM
[4]
  FRAP value, antioxidant index based on quercetine (Q): 2.77 ± 0.00 mmol Q/mol
[1]; 10 µM
  Neuroblastoma cell viability, MTT reduction relative to control cells, Mean ± SD: 59.04 ± 8.21%
[1]; 50 µM
  Neuroblastoma cell viability, MTT reduction relative to control cells, Mean ± SD: 10.09 ± 3.09%
[1]
  cytotoxicity against N2a cells (in words): increase in toxicity

From article PMC6366430 (Journal of Enzyme Inhibition and Medicinal Chemistry, 2019)
